Reference: patent US9878991B2, “TRPV1 antagonists including dihydroxy substituent and uses thereof” (Purdue Pharma L.P., priority 2007, dated 2018)

Experiments:
[1] = system: TRPV1 receptor-mediated pain; experiment: Capsaicin-induced eye wipe test; type: in vivo; conditions: rat; for eye wipe value: pre-administration value 24
Description: Each experiment uses rats weighing between 200-260 g at the start of the experiment. The rats are group-housed and have free access to food and water at all times, except prior to oral administration of a compound of formula I when food is removed for 16 hours before dosing. A control group acts as a comparison to rats treated with a compound of formula I. The control group is administered the carrier for the compound of formula I. The volume of carrier administered to the control group is the same as the volume of carrier and compound of formula I administered to the test group.
To assess the effect of compounds of formula I on TRPV1 receptor-mediated pain, the capsaicin-induced eye wipe test is used (N. R. Gavva et al., “AMG 9810 [(E)-3-(4-t-Butylphenyl)-N-(2,3-dihydrobenzo[b][1,4]dioxin-6-yl)acrylamide], a Novel Vanilloid Receptor 1 (TRPV1) Antagonist with Antihyperalgesic Properties”, J. Pharmacol. Exp. Ther. 313:474-484 (2005)). The eye wipe test is a reliable high-throughput test of the effect of TRPV1 antagonists. Rats are given a single injection of 1, 3, 10 or 30 mg/kg of either a compound of formula I; 30 mg/kg of a control selected from Celebrex, indomethacin or naproxen; or carrier. At 1, 3 or 5 hours after drug administration, 3 μL of a 100 μM capsaicin solution (in 10% EtOH/PBS) is instilled in one eye of each animal with a pipette. The number of forelimb movements (touching or wiping of the capsaicin-treated eye) are counted during a 2 minute period following instillation of capsaicin into the eye.

[2] = Plasma concentration after administration to an animal; type: in vivo

| maximum plasma concentration relative to the maximum for compound 200 [2] [times] | SMILES | eye wipe value ([1]; 1 hour after administration) | decrease of eye wipes relative to pre-administration value ([1]; 3 hours after administration) [%] | eye wipe value ([1]; 3 hours after administration) | decrease of eye wipes relative to pre-administration value ([1]; 5 hours after administration) [%] | eye wipe value ([1]; 5 hours after administration) |
| --- | --- | --- | --- | --- | --- | --- |
| – | O=C(Nc1ccc(C(F)(F)F)cc1)N1CCC(F)(c2ncc([C@H](O)CO)cc2Cl)CC1 [Compound N1, (S)-4-(3-chloro-5-(1,2-dihydroxyethyl)pyridin-2-yl)-4-fluoro-N-(4-(trifluoromethyl)phenyl)piperidine-1-carboxamide] | 3 | 96 | 1 | 92 | 2 |
| 5.3 | CC(O)(CO)c1cnc(C2=CCN(C(=O)Nc3ccc(C(F)(F)F)cc3)CC2)c(Cl)c1 (stereo not shown) [Compound R6] | – | – | – | – | – |
| 2.5 | O=C(Nc1ccc(C(F)(F)F)cc1)N1CC=C(c2ncc([C@H](O)CO)cc2Cl)CC1 [Compound Z1, (S)-3-Chloro-5-(1,2-dihydroxy-ethyl)-3′,6′-dihydro-2′H-[2,4′]bipyridinyl-1′-carboxylic acid (4-trifluoromethyl-phenyl)amide] | – | – | – | – | – |
